{
  "source": "ChEMBL document CHEMBL1141637",
  "about": "“Synthesis and anti-inflammation evaluation of new C60 fulleropyrrolidines bearing biologically active xanthine” (2008)",
  "key": {"J774.A1 [1]": {"system": "J774.A1", "assay": "Reduction of LPS-induced TNFalpha production in mouse J774A.1 cells at 10 uM after 3 hrs by ELISA relative to control", "assay_type": "functional", "set-up": "scale not given: the % may be the effect or the level left"}, "J774.A1 [2]": {"system": "J774.A1", "assay": "Reduction of LPS-induced nitric oxide production in mouse J774A.1 cells at 10 uM after 3 hrs relative to control", "assay_type": "functional", "set-up": "scale not given: the % may be the effect or the level left"}},
  "data": [
    {"molecule": "CC(=O)CCCCn1c(=O)c2c(ncn2C)n(C)c1=O", "note": "[PENTOXIFYLLINE]", "values": [
      {"measurement": "Activity", "setting": "J774.A1 [1]", "value": 7.5, "unit": "%"},
      {"measurement": "Activity", "setting": "J774.A1 [2]", "value": 33.9, "unit": "%"}
    ]}
  ]
}
